One data set deals with HIV-1 IIIB. The data set can be described thus: Syncytia assay (anti-HIV-1 activity in acutely infected C8166 cells). The format is cell-based. The conditions noted are these: Human immunodeficiency virus 1, 72 h; concentration that reduces syncytia formation by 50%; C8166 cells infected with HIV-1 IIIB, M.O.I 0.06, 3 days; means of two separate experiments; read-out: EC50 (50% effective concentration). As to the method: (§1) Cell line (C8166) and the laboratory-derived virus (HIV-1 IIIB) were obtained from the MRC, AIDS Reagent Project, London, UK. C8166 was maintained in RPMI-1640 supplemented with 10% heat-inactivated new born calf serum (Gibco, USA). The cells used in all experiments were in log-phase growth. The 50% HIV-1 IIIB tissue culture infectious dose (TCID50) in C8166 cells was determined and calculated by the Reed and Muench method. Virus stocks were stored in small aliquots at −70 °C [11].
In the presence of 100 μL of various concentrations of compounds, C8166 cells (4 × 10^5/mL) were infected with virus HIV-1IIIB at a multiplicity of infection (M.O.I) of 0.06. The final volume per well was 200 μL. Control assays were performed without the testing compounds in HIV-1IIIB infected and uninfected cultures. After 3 days of culture, the cytopathic effect (CPE) was measured by counting the number of syncytia. Percentage inhibition of syncytia formation was calculated and 50% effective concentration (EC50) was calculated. AZT (Sigma, USA) was used as a positive control. Therapeutic index (TI) = CC50/EC50 [13].

Data set [1] in a line: MTT-based cytotoxicity assay. The following applies: human, C8166 cells, concentration that causes 50% reduction in total C8166 cell number, means of two separate experiments, read-out: CC50 (50% cytotoxic concentration). The method, then: as §1
Cellular toxicity of compounds 4a–f and 6 on C8166 cells was assessed by the MTT method as described previously. Briefly, cells were seeded on 96-well microtiter plate in the absence or presence of various concentrations of compounds in triplicate and incubated at 37 °C in a humid atmosphere of 5% CO2 for 3 days. The supernatants were discarded and MTT reagent (5 mg/mL in PBS) was added to each wells, then incubated for 4 h, 100 μL of 50% DMF-20% SDS was added. After the formazan was dissolved completely, the plates were read on a Bio-TekElx800 ELISA reader at 595/630 nm. The cytotoxic concentration that caused the reduction of viable C8166 cells by 50% (CC50) was determined from dose-response curve.
On the technique in general: Formazan colour is commonly taken as a measure of viable cells.

Take `Cc1cn([C@H]2C[C@H](N=[N+]=[N-])[C@@H](CO)O2)c(=O)[nH]c1=O` [AZT, 3'-azido-3'-deoxythymidine, reference compound]: in the data set on HIV-1 IIIB, the EC50 stood at 0.0121 µM. Further, in data set [1], the CC50 at 3 days stood at 4260 µM.

For `Cc1ccc2c(C(=O)CN3CCCCC3)cn(S(=O)(=O)c3ccccc3)c2c1` [Compound 4a, N-Phenylsulfonyl-3-[2-piperidinylethanone]-6-methylindole], the melting point – broadly, the temperature of the solid-liquid transition – fell in the range of 132 to 134 °C. Moreover, the EC50 in the data set on HIV-1 IIIB was 32.8 µM. Also, in data set [1], the CC50 at 3 days is more than 504 µM.

`Cc1ccc2c(C(=O)CN3CCOCC3)cn(S(=O)(=O)c3ccccc3)c2c1` [Compound 4b, N-Phenylsulfonyl-3-[2-morpholinoethanone]-6-methylindole] registered a melting point of 174 to 176 °C. Moreover, the EC50 in the data set on HIV-1 IIIB came out at 56.6 µM. Further, the CC50 at 3 days in data set [1] was more than 502 µM.

Compound `Cc1ccc2c(C(=O)CN3CCCC3)cn(S(=O)(=O)c3ccccc3)c2c1` [Compound 4c, N-Phenylsulfonyl-3-[2-pyrrolidinoethanone]-6-methylindole] yielded a melting point of 124 to 126 °C. The EC50 in the data set with HIV-1 IIIB was 106 µM. Also, the CC50 at 3 days in data set [1] came out at 226 µM.

With `Cc1ccc2c(C(=O)CN(C(C)C)C(C)C)cn(S(=O)(=O)c3ccccc3)c2c1` [Compound 4d, N-Phenylsulfonyl-3-[2-diisopropylaminoethanone]-6-methylindole], in the data set with HIV-1 IIIB, the EC50 came out at 17.9 µM. Besides, the CC50 at 3 days in data set [1] was found to be 220 µM.

With `CCCCNCC(=O)c1cn(S(=O)(=O)c2ccccc2)c2cc(C)ccc12` [Compound 4e, N-Phenylsulfonyl-3-[2-butylaminoethanone]-6-methylindole], in the data set with HIV-1 IIIB, the EC50 worked out at 30 µM. The CC50 at 3 days in data set [1] came out at 43.8 µM.

In the case of `CCc1ccc(S(=O)(=O)n2cc(C(=O)CN3CCOCC3)c3ccc(C)cc32)cc1` [Compound 4f, N-(p-Ethyl)phenylsulfonyl-3-[2-morpholinoethanone]-6-methylindole], the EC50 with HIV-1 IIIB amounted to 9.42 µM. Further, the CC50 at 3 days in data set [1] was more than 469 µM.

In turn, `CCc1ccc(S(=O)(=O)n2cc(C(=O)CSc3nnc(-c4ccccc4)o3)c3ccc(C)cc32)cc1` [Compound 6, N-(p-Ethyl)phenylsulfonyl-3-[2-(5-phenyl-1,3,4-oxadiazole-2-yl-thio)ethanone]-6-methylindole] had a melting point of 122 to 124 °C. The EC50 in the data set with HIV-1 IIIB amounted to 4.62 µM. Moreover, the CC50 at 3 days in data set [1] worked out at 309 µM.

(Values after paper PMC4491657, “Design and Synthesis of Novel N-Arylsulfonyl-3-(2-yl-ethanone)-6-methylindole Derivatives as Inhibitors of HIV-1 Replication” (Pharmaceuticals, 2015).)
